From patent US20040138301A1, “Chemical uncouplers for the treatment of obesity” (priority 2002, published 2004)

Experiments:
isolated mitochondria = assay: Assay (II): effect of chemical uncouplers on mitochondrial respiration using isolated mitochondria (oxygen consumption); format: biochemical
Procedure: Assay (II)—The Effect of Chemical Uncouplers on Mitochondrial Respiration Using Isolated Mitochondria.
This assay is used to investigate if the increase in glucose utilisation caused by the test compounds observed in the glucose utilisation assay is due to an increase in the respiration of the mitochondria. This is done by measuring oxygen consumption in isolated mitochondria.
A Clark oxygen electrode is used to determine the oxygen consumption. The isolated mitochondria are added to medium containing oxygen and nutrients (e.g. Succinate) and the rate of oxygen consumptions is measured, when stabilized a small amount of ADP is added to increase the respiration and an increase in the rate of oxygen consumption is measured. When the rate of oxygen consumption again has stabilized the test compound is added and a further increase in oxygen consumption is seen. This experiment is done with and without the addition of oligomycin which is an inhibitor of the ATP-synthase. Finally, the test compound is examined without adding ADP. If the test compound stimulates the rate of oxygen consumption in all setups, it is regarded as a chemical uncoupler.

HEP-G2 cells = assay: cells; details: for EC50 / Emax / EC (Emax): Homo sapiens; for EC50: HepG2, 3 h, read-out: HEP-G2 EC50, HEP-G2 cells, glucose utilisation, 3 hours incubation; for Emax: HepG2, read-out: HEP-G2 Emax (% of FCCP), HEP-G2 cells, maximal stimulation relative to FCCP; for EC (Emax): HepG2, read-out: HEP-G2 Emax (μM), HEP-G2 cells, concentration at which Emax is achieved (CEmax)
Procedure, shortened: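 HEP-G2 cells were treated with compound for 3 h at 37 °C in MEM/0.5% BSA containing 10 μCi/ml D-(3-^3H(N))-glucose, then lysed with TCA; ^3H-water released via the respiratory chain was recovered by evaporation at 50 °C and counted. Values are corrected for non-specific and basal counts, expressed as % of maximal FCCP or DNP stimulation, and EC50 is from a variable-slope sigmoidal fit.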

| Structure (SMILES) | Mito State-4 (isolated mitochondria) | EC50 (HEP-G2 cells) [nM] | Emax (HEP-G2 cells) [%] | EC (Emax) (HEP-G2 cells) [µM] | HEP-G2 Tox (HEP-G2 cells; human, 3 h) |
| --- | --- | --- | --- | --- | --- |
| N#CC(C#N)=NNc1ccc(OC(F)(F)F)cc1 [Example 27, Carbonylcyanide p-Trifluoromethoxy-Phenylhydrazone, reference compound] | Ok | 3000 | 100 | 30 |  |
| N#CC(C#N)=Cc1c[nH]c2ccc(Cl)cc12 [Example 30, 2-((5-Chloro-1H-Indol-3-Yl)Methylene)Malononitrile] | Ok | 19500 | 60 | 100 |  |
| N#CC(C#N)=Cc1c(Cl)[nH]c2ccccc12 [Example 34, 2-(2-Chloro-1H-Indol-3-Ylmethylene)-Malononitrile] | Ok | 1400 | 80 | 10 |  |
| Cc1c(Br)cc(C(C)(C)C)c(O)c1C(=O)Nc1ccc([N+](=O)[O-])cc1Cl [Example 37, 3-Bromo-5-Tert-Butyl-N-(2-Chloro-4-Nitro-Phenyl)-6-Hydroxy-2-Methyl-Benzamide] | Ok | 35 | 100 | 1 |  |
| Cc1c(Cl)cc(C(C)(C)C)c(O)c1C(=O)Nc1ccc([N+](=O)[O-])cc1C(F)(F)F [Example 50, 3-Tert-Butyl-5-Chloro-2-Hydroxy-6-Methyl-N-(4-Nitro-2-Trifluoromethyl-Phenyl)-Benzamide] | Ok | 30 | 82 | 0.1 |  |
| Cc1cc(C(C#N)c2ccc(Cl)cc2)c(Cl)cc1NC(=O)c1c(C)c(Br)cc(C(C)(C)C)c1O (stereo not shown) [Example 56, 3-Bromo-5-Tert-Butyl-N-{5-Chloro-4-[(4-Chloro-Phenyl)-Cyano-Methyl]-2-Methyl-Phenyl}-6-Hydroxy-2-Methyl-Benzamide] | Ok | 6600 | 100 | 100 |  |
| Cc1c(Br)cc(C(C)(C)C)c(O)c1C(=O)Nc1ccc([N+](=O)[O-])cc1C(F)(F)F [Example 58, 3-Bromo-5-Tert-Butyl-6-Hydroxy-2-Methyl-N-(4-Nitro-2-Trifluoromethyl-Phenyl)-Benzamide] | Ok | 30 | 100 | 0.1 |  |
| CC(=C(C#N)C#N)c1cc(C(C)(C)C)c(O)c(C(C)(C)C)c1 [Example 75, 2-[1-(3,5-Di-Tert-Butyl-4-Hydroxy-Phenyl)-Ethylidene]-Malononitrile] | Ok | 360 | 120 | 30 | Tox 0.3 mM |
| CC(C)(C)c1cc(/C=C(\C#N)c2ccc([N+](=O)[O-])cc2)cc(C(C)(C)C)c1O [Example 77, 3-(3,5-Di-Tert-Butyl-4-Hydroxy-Phenyl)-2-(4-Nitro-Phenyl)-Acrylonitrile] | Ok | 310 | 100 | 3 |  |
